Test results reported in patent publication US20240358692A1, “TREATMENT OF SCLERODERMA” (Aisa Pharma, Inc., priority 2023, published 2024).

How the values were obtained:
participants with SSc-RP = experiment: Average daily Raynaud's Condition Score (RCS); assay type: in vivo, human; set-up: key to Average Daily RCS, Mean / Average Daily RCS, Median / Average Daily RCS Change from Baseline, Mean / Average Daily RCS Change from Baseline, Median: RCS rated on a 0-10 cm VAS scale; settings: ITT Population - Part A; for Average Daily RCS, Mean / Average Daily RCS, Median: dosing period
From the text: The RCS is based on how much difficulty participants had with Raynaud's today, how many attacks the participant had, and how long they lasted. In addition participants were and will be asked to consider how much pain, numbness, or other symptoms the Raynaud's caused in fingers (including painful sores), and how much the Raynaud's along affected the use of hand today (VAS 0-10 cm scale).
The absolute change in average daily RCS from baseline to the end of each dosing period was and will be a secondary outcome variable. The sponsor-developed participant-informed diary has been and will be used to record data. The average daily RCS is defined as the total RCS divided by the number of days with available diary data of each dosing period. Total RCS during screening period divided by the number of days with available data will be used as baseline for the analysis of all periods. If there are multiple daily RCS scores, the latest daily RCS will be used. The variable will be calculated similar to frequency data as before.

[1] = cited from earlier work
[2] = Excluding Outliers, dose cilnidipine 10 mg, tadalafil 5 mg, alone or combined as labelled
[3] = Excluding Outliers, dose cilnidipine 20 mg, tadalafil 5 mg, alone or combined as labelled
[4] = Excluding Outliers, pooled arms Cilnidipine 10 mg and Cilnidipine 10 mg + Tadalafil 5 mg
[5] = Excluding Outliers, pooled arms Cilnidipine 20 mg and Cilnidipine 20 mg + Tadalafil 5 mg
[6] = Excluding Outliers, pooled cilnidipine 10 mg and 20 mg arms (combination: + tadalafil 5 mg)
[7] = dose cilnidipine 10 mg, tadalafil 5 mg, alone or combined as labelled
[8] = dose cilnidipine 20 mg, tadalafil 5 mg, alone or combined as labelled
[9] = pooled arms Cilnidipine 10 mg and Cilnidipine 10 mg + Tadalafil 5 mg
[10] = pooled arms Cilnidipine 20 mg and Cilnidipine 20 mg + Tadalafil 5 mg
[11] = pooled cilnidipine 10 mg and 20 mg arms (combination: + tadalafil 5 mg)

For `COCCOC(=O)C1=C(C)NC(C)=C(C(=O)OC/C=C/c2ccccc2)C1c1cccc([N+](=O)[O-])c1` (centres unmarked) [Cilnidipine], which “Average Daily RCS Change from Baseline, Mean” value (participants with SSc-RP; [2]) is on record?
The value was −0.98.

What about the “Average Daily RCS Change from Baseline, Median” value (participants with SSc-RP; [2]) of the same molecule?
Its value is −0.98.

And the “Average Daily RCS Percent Change from Baseline, Mean” value (participants with SSc-RP; [2])?
Its value is −35.74%.

What about the “Average Daily RCS Percent Change from Baseline, Median” value (participants with SSc-RP; [2]) of the same molecule?
The value was −35.74%.

And the “Average Daily RCS Change from Baseline, Mean” value (participants with SSc-RP; [3])?
Its value is −0.45.

What about the “Average Daily RCS Change from Baseline, Median” value (participants with SSc-RP; [3]) of the same molecule?
The value was −0.45.

What about the “Average Daily RCS Percent Change from Baseline, Mean” value (participants with SSc-RP; [3]) of the same molecule?
The value was −17.16%.

And the “Average Daily RCS Percent Change from Baseline, Median” value (participants with SSc-RP; [3])?
The value was −17.16%.

What about the “Average Daily RCS, Mean” value (participants with SSc-RP; [2]) of the same molecule?
The value was 1.76.

And the “Average Daily RCS, Median” value (participants with SSc-RP; [2])?
Its value is 1.76.

And the “Average Daily RCS, Mean” value (participants with SSc-RP; [3])?
The value was 2.90.

What about the “Average Daily RCS, Median” value (participants with SSc-RP; [3]) of the same molecule?
Its value is 2.90.

And the “Average Daily RCS, Mean” value (participants with SSc-RP; [4])?
Its value is 2.43.

What about the “Average Daily RCS, Median” value (participants with SSc-RP; [4]) of the same molecule?
The value was 1.76.

What about the “Average Daily RCS, Mean” value (participants with SSc-RP; [5]) of the same molecule?
Its value is 3.60.

What about the “Average Daily RCS, Median” value (participants with SSc-RP; [5]) of the same molecule?
The value was 3.82.

And the “Average Daily RCS, Mean” value (participants with SSc-RP; [6])?
Its value is 2.52.

And the “Average Daily RCS, Median” value (participants with SSc-RP; [6])?
Its value is 1.76.

And the “Average Daily RCS Change from Baseline, Mean” value (participants with SSc-RP; [4])?
The value was −1.64.

What about the “Average Daily RCS Change from Baseline, Median” value (participants with SSc-RP; [4]) of the same molecule?
The value was −1.51.

And the “Average Daily RCS Percent Change from Baseline, Mean” value (participants with SSc-RP; [4])?
The value was −41.77%.

What about the “Average Daily RCS Percent Change from Baseline, Median” value (participants with SSc-RP; [4]) of the same molecule?
Its value is −36.47%.

And the “Average Daily RCS Change from Baseline, Mean” value (participants with SSc-RP; [5])?
The value was −1.08.

And the “Average Daily RCS Change from Baseline, Median” value (participants with SSc-RP; [5])?
Its value is −0.59.

What about the “Average Daily RCS Percent Change from Baseline, Mean” value (participants with SSc-RP; [5]) of the same molecule?
The value was −18.93%.

And the “Average Daily RCS Percent Change from Baseline, Median” value (participants with SSc-RP; [5])?
Its value is −20.71%.

And the “Average Daily RCS Change from Baseline, Mean” value (participants with SSc-RP; [6])?
The value was −0.63.

What about the “Average Daily RCS Change from Baseline, Median” value (participants with SSc-RP; [6]) of the same molecule?
The value was −0.98.

And the “Average Daily RCS Percent Change from Baseline, Mean” value (participants with SSc-RP; [6])?
Its value is −23.35%.

And the “Average Daily RCS Percent Change from Baseline, Median” value (participants with SSc-RP; [6])?
Its value is −35.74%.

And the “Average Daily RCS Change from Baseline, Mean” value (participants with SSc-RP; [7])?
The value was −0.98.

And the “Average Daily RCS Change from Baseline, Median” value (participants with SSc-RP; [7])?
The value was −0.98.

And the “Average Daily RCS Percent Change from Baseline, Mean” value (participants with SSc-RP; [7])?
The value was −35.74%.

What about the “Average Daily RCS Percent Change from Baseline, Median” value (participants with SSc-RP; [7]) of the same molecule?
The value was −35.74%.

And the “Average Daily RCS Change from Baseline, Mean” value (participants with SSc-RP; [8])?
The value was −0.45.

What about the “Average Daily RCS Change from Baseline, Median” value (participants with SSc-RP; [8]) of the same molecule?
The value was −0.45.

What about the “Average Daily RCS Percent Change from Baseline, Mean” value (participants with SSc-RP; [8]) of the same molecule?
Its value is −17.16%.

And the “Average Daily RCS Percent Change from Baseline, Median” value (participants with SSc-RP; [8])?
Its value is −17.16%.

And the “Average Daily RCS, Mean” value (participants with SSc-RP; [7])?
The value was 1.76.

What about the “Average Daily RCS, Median” value (participants with SSc-RP; [7]) of the same molecule?
Its value is 1.76.

And the “Average Daily RCS, Mean” value (participants with SSc-RP; [8])?
Its value is 2.90.

What about the “Average Daily RCS, Median” value (participants with SSc-RP; [8]) of the same molecule?
The value was 2.90.

What about the “Average Daily RCS, Mean” value (participants with SSc-RP; [9]) of the same molecule?
The value was 2.43.

And the “Average Daily RCS, Median” value (participants with SSc-RP; [9])?
Its value is 1.76.

What about the “Average Daily RCS, Mean” value (participants with SSc-RP; [10]) of the same molecule?
The value was 3.60.

What about the “Average Daily RCS, Median” value (participants with SSc-RP; [10]) of the same molecule?
Its value is 3.82.

And the “Average Daily RCS, Mean” value (participants with SSc-RP; [11])?
The value was 2.52.

And the “Average Daily RCS, Median” value (participants with SSc-RP; [11])?
The value was 1.76.

What about the “Average Daily RCS Change from Baseline, Mean” value (participants with SSc-RP; [9]) of the same molecule?
The value was −1.64.

What about the “Average Daily RCS Change from Baseline, Median” value (participants with SSc-RP; [9]) of the same molecule?
Its value is −1.51.

And the “Average Daily RCS Percent Change from Baseline, Mean” value (participants with SSc-RP; [9])?
The value was −41.77%.

What about the “Average Daily RCS Percent Change from Baseline, Median” value (participants with SSc-RP; [9]) of the same molecule?
The value was −36.47%.

And the “Average Daily RCS Change from Baseline, Mean” value (participants with SSc-RP; [10])?
Its value is −1.08.

And the “Average Daily RCS Change from Baseline, Median” value (participants with SSc-RP; [10])?
The value was −0.59.

And the “Average Daily RCS Percent Change from Baseline, Mean” value (participants with SSc-RP; [10])?
The value was −18.93%.

What about the “Average Daily RCS Percent Change from Baseline, Median” value (participants with SSc-RP; [10]) of the same molecule?
The value was −20.71%.

What about the “Average Daily RCS Change from Baseline, Mean” value (participants with SSc-RP; [11]) of the same molecule?
The value was −0.63.

What about the “Average Daily RCS Change from Baseline, Median” value (participants with SSc-RP; [11]) of the same molecule?
Its value is −0.98.

And the “Average Daily RCS Percent Change from Baseline, Mean” value (participants with SSc-RP; [11])?
Its value is −23.35%.

What about the “Average Daily RCS Percent Change from Baseline, Median” value (participants with SSc-RP; [11]) of the same molecule?
Its value is −35.74%.

What about the CL/F ([1]; 10 mg Cilnidipine, Healthy Volunteers, single oral dose, mean) of the same molecule?
The CL/F was 304.7 L/h.

What about the “time to achieve maximal plasma concentrations (Tmax)” value ([1]; oral dosing) of the same molecule?
The value was no more than 2 h.
